# Measured values taken from patent publication US9695155B2, “Herbicidal substituted pyrimidinyloxy benzene compounds” (E. I. DU PONT DE NEMOURS AND COMPANY, priority 2013, dated 2017).
# Experiments:
# velvetleaf = experiment: Test C preemergence; format: in vivo, Abutilon theophrasti; conditions: Abutilon theophrasti, pre-emergence
# In short: (§1)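 Visual ratings on a 0–100 scale (100 = complete control) were made versus untreated controls after 13–15 greenhouse days. Chemicals in a surfactant-containing non-phytotoxic solvent were applied either preemergence to seeds in loam–sand soil or postemergence to 1- to 4-leaf plants 2–18 cm tall.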
# ragweed = experiment: Test C postemergence; format: in vivo, Ambrosia elatior; conditions: Ambrosia artemisiifolia, post-emergence
# In short: as §1
# yellow nutsedge [1] = experiment: Test C postemergence; format: in vivo, Cyperus esculentus; conditions: Cyperus, post-emergence
# In short: as §1
# giant foxtail = experiment: Test A preemergence; format: in vivo, Setaria faberii; conditions: Setaria faberi, pre-emergence, 240 h, 0 to 100 scale where 0 is no effect and 100 is complete control
# In short: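 Greenhouse pot test, loam/sand soil. Formulation: non-phytotoxic solvent mix plus surfactant. Pre: directed spray onto soil after sowing. Post: plants at 1–2 leaf, 2–10 cm. Rated visually vs untreated controls at ~10 d, 0 (no effect) to 100 (complete control).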
# blackgrass = experiment: Test C postemergence; format: in vivo, Alopecurus myosuroides; conditions: Alopecurus myosuroides, post-emergence
# In short: as §1
# soybean = experiment: Test C preemergence; format: in vivo, Glycine max; conditions: Glycine max, pre-emergence
# In short: as §1
# lambsquarters = experiment: Test C postemergence; format: in vivo, Chenopodium album; conditions: Chenopodium album, post-emergence
# In short: as §1
# yellow nutsedge [2] = experiment: Test C preemergence; format: in vivo, Cyperus esculentus; conditions: Cyperus, pre-emergence
# In short: as §1
# wheat, winter = experiment: Test C postemergence; format: in vivo, Triticum aestivum; conditions: Triticum aestivum, post-emergence
# In short: as §1
# pigweed [3] = experiment: Test C preemergence; format: in vivo, Amaranthus retroflexus; conditions: Amaranthus retroflexus, pre-emergence
# In short: as §1
# pigweed [4] = experiment: Test C postemergence; format: in vivo, Amaranthus retroflexus; conditions: Amaranthus retroflexus, post-emergence
# In short: as §1
# rice = experiment: Test B flooded paddy test; format: in vivo, Oryza sativa; conditions: Oryza sativa; Flood, 250 g ai/ha; 0 to 100 scale where 0 is no effect and 100 is complete control; read-out: Plant response rating, Rice
# In short: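 Compound added straight to paddy water, with pots kept flooded 3 cm above soil, on plants grown to the 2-leaf stage. Visual scoring 0-100 (100 = complete control) against untreated controls after 13 to 15 greenhouse days.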
# wild oat = experiment: Test C postemergence; format: in vivo, Avena fatua; conditions: Avena fatua, post-emergence
# In short: as §1
# Italian ryegrass = experiment: Test C postemergence; format: in vivo, Lolium multiflorum; conditions: Lolium multiflorum, post-emergence
# In short: as §1
compound,measurement,setting,value
"FC(F)(F)Sc1cnn(-c2ccccc2Oc2ncc(Cl)cn2)c1 [Compound 132, 5-chloro-2-[2-[4-(trifluoromethylthio)-1H-pyrazol-1-yl]phenoxy]pyrimidine]",pest or weed control at 16 g/ha,"velvetleaf; 16 g ai/ha, preemergence, scale 0 to 100 (0 no effect, 100 complete control), read-out: Velvetleaf plant response rating",75%
same,pest or weed control at 62 g/ha,"velvetleaf; 62 g ai/ha, preemergence, scale 0 (no effect) to 100 (complete control), read-out: Velvetleaf plant response rating",100%
same,pest or weed control at 125 g/ha,"velvetleaf; 125 g ai/ha, preemergence, scale 0 (no effect) to 100 (complete control), read-out: Velvetleaf plant response rating",100%
same,pest or weed control at 31 g/ha,"velvetleaf; Preemergence, 31 g ai/ha, scale 0 to 100, 0 no effect, 100 complete control, read-out: Plant response rating, Velvetleaf",85%
same,pest or weed control at 16 g/ha,"ragweed; 16 g ai/ha, postemergence, 0 is no effect, 100 is complete control, read-out: Plant response rating (0 to 100), Ragweed",0%
same,pest or weed control at 125 g/ha,"ragweed; 125 g ai/ha, postemergence, visual rating, scale 0 to 100 (0 no effect, 100 complete control), read-out: Plant response rating, Ragweed",35%
same,pest or weed control at 62 g/ha,"ragweed; Postemergence, 62 g ai/ha, scale 0 to 100 (0 no effect, 100 complete control), read-out: Plant response rating, Ragweed",10%
same,pest or weed control at 16 g/ha,"yellow nutsedge [1]; 16 g ai/ha, postemergence, 0 is no effect, 100 is complete control, read-out: Plant response rating (0 to 100), Nutsedge, Yellow",0%
same,pest or weed control at 125 g/ha,"yellow nutsedge [1]; 125 g ai/ha, postemergence, visual rating, scale 0 to 100 (0 no effect, 100 complete control), read-out: Plant response rating, Nutsedge, Yellow",10%
same,pest or weed control at 62 g/ha,"yellow nutsedge [1]; Postemergence, 62 g ai/ha, scale 0 to 100 (0 no effect, 100 complete control), read-out: Plant response rating, Nutsedge, Yellow",0%
same,pest or weed control at 125 g/ha,"giant foxtail; 125 g ai/ha, read-out: Plant response rating, Foxtail, Giant",90%
same,pest or weed control at 500 g/ha,"giant foxtail; 500 g ai/ha, read-out: Foxtail, Giant plant response rating",100%
same,pest or weed control at 16 g/ha,"blackgrass; 16 g ai/ha, postemergence, 0 is no effect, 100 is complete control, read-out: Plant response rating (0 to 100), Blackgrass",5%
same,pest or weed control at 125 g/ha,"blackgrass; 125 g ai/ha, postemergence, visual rating, scale 0 to 100 (0 no effect, 100 complete control), read-out: Plant response rating, Blackgrass",5%
same,pest or weed control at 31 g/ha,"blackgrass; Postemergence, 31 g ai/ha, scale 0 to 100 (0 no effect, 100 complete control), 13 to 15 days, read-out: Plant response rating, Blackgrass",5%
same,pest or weed control at 62 g/ha,"blackgrass; Postemergence, 62 g ai/ha, scale 0 to 100 (0 no effect, 100 complete control), read-out: Plant response rating, Blackgrass",10%
same,plant injury at 16 g/ha,"soybean; 16 g ai/ha, preemergence, scale 0 to 100 (0 no effect, 100 complete control), read-out: Soybean plant response rating",0%
same,plant injury at 62 g/ha,"soybean; 62 g ai/ha, preemergence, scale 0 (no effect) to 100 (complete control), read-out: Soybean plant response rating",5%
same,plant injury at 125 g/ha,"soybean; 125 g ai/ha, preemergence, scale 0 (no effect) to 100 (complete control), read-out: Soybean plant response rating",55%
same,plant injury at 31 g/ha,"soybean; Preemergence, 31 g ai/ha, scale 0 to 100, 0 no effect, 100 complete control, read-out: Plant response rating, Soybean",0%
same,pest or weed control at 16 g/ha,"lambsquarters; 16 g ai/ha, postemergence, 0 is no effect, 100 is complete control, read-out: Plant response rating (0 to 100), Lambsquarters",10%
same,pest or weed control at 125 g/ha,"lambsquarters; 125 g ai/ha, postemergence, visual rating, scale 0 to 100 (0 no effect, 100 complete control), read-out: Plant response rating, Lambsquarters",50%
same,pest or weed control at 62 g/ha,"lambsquarters; Postemergence, 62 g ai/ha, scale 0 to 100 (0 no effect, 100 complete control), read-out: Plant response rating, Lambsquarters",60%
same,pest or weed control at 16 g/ha,"yellow nutsedge [2]; 16 g ai/ha, preemergence, scale 0 to 100 (0 no effect, 100 complete control), read-out: Nutsedge, Yellow plant response rating",100%
same,pest or weed control at 62 g/ha,"yellow nutsedge [2]; 62 g ai/ha, preemergence, scale 0 (no effect) to 100 (complete control), read-out: Nutsedge, Yellow plant response rating",15%
same,pest or weed control at 125 g/ha,"yellow nutsedge [2]; 125 g ai/ha, preemergence, scale 0 (no effect) to 100 (complete control), read-out: Nutsedge, Yellow plant response rating",15%
same,pest or weed control at 31 g/ha,"yellow nutsedge [2]; Preemergence, 31 g ai/ha, scale 0 to 100, 0 no effect, 100 complete control, read-out: Plant response rating, Nutsedge, Yellow",0%
same,plant injury at 16 g/ha,"wheat, winter; 16 g ai/ha, postemergence, 0 is no effect, 100 is complete control, read-out: Plant response rating (0 to 100), Wheat",0%
same,plant injury at 125 g/ha,"wheat, winter; 125 g ai/ha, postemergence, visual rating, scale 0 to 100 (0 no effect, 100 complete control), read-out: Plant response rating, Wheat",5%
same,plant injury at 62 g/ha,"wheat, winter; Postemergence, 62 g ai/ha, scale 0 to 100 (0 no effect, 100 complete control), read-out: Plant response rating, Wheat",0%
same,pest or weed control at 16 g/ha,"pigweed [3]; 16 g ai/ha, preemergence, scale 0 to 100 (0 no effect, 100 complete control), read-out: Pigweed plant response rating",30%
same,pest or weed control at 62 g/ha,"pigweed [3]; 62 g ai/ha, preemergence, scale 0 (no effect) to 100 (complete control), read-out: Pigweed plant response rating",70%
same,pest or weed control at 125 g/ha,"pigweed [3]; 125 g ai/ha, preemergence, scale 0 (no effect) to 100 (complete control), read-out: Pigweed plant response rating",100%
same,pest or weed control at 31 g/ha,"pigweed [3]; Preemergence, 31 g ai/ha, scale 0 to 100, 0 no effect, 100 complete control, read-out: Plant response rating, Pigweed",45%
same,pest or weed control at 16 g/ha,"pigweed [4]; 16 g ai/ha, postemergence, 0 is no effect, 100 is complete control, read-out: Plant response rating (0 to 100), Pigweed",25%
same,pest or weed control at 125 g/ha,"pigweed [4]; 125 g ai/ha, postemergence, visual rating, scale 0 to 100 (0 no effect, 100 complete control), read-out: Plant response rating, Pigweed",80%
same,pest or weed control at 62 g/ha,"pigweed [4]; Postemergence, 62 g ai/ha, scale 0 to 100 (0 no effect, 100 complete control), read-out: Plant response rating, Pigweed",75%
same,plant injury at 250 g/ha,rice,0%
same,pest or weed control at 16 g/ha,"wild oat; 16 g ai/ha, postemergence, 0 is no effect, 100 is complete control, read-out: Plant response rating (0 to 100), Oat, Wild",0%
same,pest or weed control at 125 g/ha,"wild oat; 125 g ai/ha, postemergence, visual rating, scale 0 to 100 (0 no effect, 100 complete control), read-out: Plant response rating, Oat, Wild",5%
same,pest or weed control at 62 g/ha,"wild oat; Postemergence, 62 g ai/ha, scale 0 to 100 (0 no effect, 100 complete control), read-out: Plant response rating, Oat, Wild",5%
same,pest or weed control at 16 g/ha,"Italian ryegrass; 16 g ai/ha, postemergence, 0 is no effect, 100 is complete control, read-out: Plant response rating (0 to 100), Ryegrass, Italian",0%
same,pest or weed control at 125 g/ha,"Italian ryegrass; 125 g ai/ha, postemergence, visual rating, scale 0 to 100 (0 no effect, 100 complete control), read-out: Plant response rating, Ryegrass, Italian",5%
same,pest or weed control at 62 g/ha,"Italian ryegrass; Postemergence, 62 g ai/ha, scale 0 to 100 (0 no effect, 100 complete control), read-out: Plant response rating, Ryegrass, Italian",5%
